Values of other authors as cited in patent US20020155976A1, “Cleaning compositions” (Unilever Home & Personal Care USA, Division of Conopco, Inc., priority 2000, published 2002).
Where two headings read alike, the source gives them in different places.

[1] = at 20° C., other common materials, by contrast

SMILES	Water Solubility [1]	Water Solubility (grams of solid to form a saturated solution in 100 grams of water at 20° C., highly water-soluble materials)
O=BO[O-].[Na+] [Sodium perborate anhydrous]	3.7 g/100 g	
NC(N)=O [Urea]		>100 g/100 g
O=P(O)(O)OP(=O)(O)OP(=O)(O)O [Sodium tripolyphosphate anhydrous]	15 g/100 g	
